Among the data in patent publication US20110183954A1, “TRICYCLIC 2,4-DIAMINO-L,3,5-TRIAZINE DERIVATIVES USEFUL FOR THE TREATMENT OF CANCER AND MYELOPROLIFERATIVE DISORDERS” (ASTRAZENECA AB, priority 2008, published 2011) are IC50 values, retold here.

In this assay the target is human JAK2 (Homo sapiens, UniProt O60674). In words: Method 1 (JAK2): Amplified Luminescent Proximity Assay (Alphascreen). Format: biochemical. More on the design: His6 (C); purchased Upstate Biotechnology; host or cells: baculovirus in Sf21 cells. To be noted: 150 pM JAK2 enzyme, 5 mM ATP, 60 minutes, room temperature, read-out: IC50 (JAK inhibitory activity, Method 1 (JAK2)). The text has this: JAK2 kinase activity may be determined by measuring the kinase's ability to phosphorylate synthetic tyrosine residues within a generic polypeptide substrate using an Amplified Luminescent Proximity Assay (Alphascreen) technology (PerkinElmer, 549 Albany Street, Boston, Mass.).
Sequence of human JAK2 (O60674 808-1132 limits assumed): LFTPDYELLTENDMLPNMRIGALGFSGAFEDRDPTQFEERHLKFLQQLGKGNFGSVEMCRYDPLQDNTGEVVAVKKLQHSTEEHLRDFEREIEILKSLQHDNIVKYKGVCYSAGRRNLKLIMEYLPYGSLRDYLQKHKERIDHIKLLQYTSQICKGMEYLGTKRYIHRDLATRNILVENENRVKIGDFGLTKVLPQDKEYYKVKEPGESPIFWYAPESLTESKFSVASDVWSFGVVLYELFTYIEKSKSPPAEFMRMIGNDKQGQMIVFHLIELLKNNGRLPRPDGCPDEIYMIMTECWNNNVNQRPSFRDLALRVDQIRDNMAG
To measure JAK2 kinase activity, a commercially available purified enzyme may be used. The enzyme may be a C-terminal His6-tagged, recombinant, human JAK2, amino acids 808-end, (Genbank Accession number NM 004972) expressed by baculovirus in Sf21 cells (Upstate Biotechnology MA). After incubation of the kinase with a biotinylated substrate and adenosine triphosphate (ATP) for 60 minutes at room temperature, the kinase reaction may be stopped by the addition of 30 mM ethylenediaminetetraacetic acid (EDTA). The reaction may be performed in 384 well microtitre plates and the reaction products may be detected with the addition of streptavidin coated Donor Beads and phosphotyrosine-specific antibodies coated Acceptor Beads using the EnVision Multilabel Plate Reader after an overnight incubation at room temperature.
Background: Bead proximity is the source of the signal in Alpha formats.
In general, IC50 refers to the concentration that gives 50% inhibition. On to `C[C@H](Nc1nc(Nc2cn(C)cn2)nc(N2CCOC[C@H]2CO)n1)c1ncc(F)cc1F` [Example 22, [(3R)-4-(4-{[(1S)-1-(3,5-difluoropyridin-2-yl)ethyl]amino}-6-[(1-methyl-1H-imidazol-4-yl)amino]-1,3,5-triazin-2-yl)morpholin-3-yl]methanol], for which the half-inhibitory concentration (IC50) was determined as 4 nM. Consider `C[C@H](Nc1nc(Nc2cn(C)cn2)nc(N2CCOCC2)n1)c1ncc(F)cn1` [Example 5, N-[(1S)-1-(5-Fluoropyrimidin-2-yl)ethyl]-N′-(1-methyl-1H-imidazol-4-yl)-6-morpholin-4-yl-1,3,5-triazine-2,4-diamine], for which the IC50 came out at 9 nM. The result for `CCn1cnc(Nc2nc(N[C@@H](C)c3ncc(F)cn3)nc(N3CCOCC3)n2)c1` [Example 35, N-(1-Ethyl-1H-imidazol-4-yl)-N′-[(1S)-1-(5-fluoropyrimidin-2-yl)ethyl]-6-morpholin-4-yl-1,3,5-triazine-2,4-diamine] reads 23 nM. The result for `C[C@H](Nc1nc(Nc2cn(C)cn2)nc(N2CCC(F)(F)CC2)n1)c1ncc(F)cc1F` [Example 9, 6-(4,4-Difluoropiperidin-1-yl)-N-[(1S)-1-(3,5-difluoropyridin-2-yl)ethyl]-N-(1-methyl-1H-imidazol-4-yl)-1,3,5-triazine-2,4-diamine] reads 4 nM. Take `C[C@H](Nc1nc(Nc2ncc(C#N)s2)nc(N2CCOCC2)n1)c1ncc(F)cn1` [Example 7, 2-[(4-{[(1S)-1-(5-Fluoropyrimidin-2-yl)ethyl]amino}-6-morpholin-4-yl-1,3,5-triazin-2-yl)amino]-1,3-thiazole-5-carbonitrile]: the IC50 was found to be 3170 nM. As to `C[C@H](Nc1nc(Nc2cn(C)cn2)nc(N2CCOCC2)n1)c1ccc(C#N)cc1` [Example 28, 4-[(1S)-1-({4-[(1-methyl-1H-imidazol-4-yl)amino]-6-morpholin-4-yl-1,3,5-triazin-2-yl}amino)ethyl]benzonitrile], the half-maximal inhibitory concentration (IC50) was 798 nM. The result for `C[C@@H](Nc1nc(Nc2cn(C)cn2)nc(N2CCOCC2)n1)c1ncc(F)cc1F` (single isomer, unassigned) [Example 10(a)] reads 190 nM; that for `C[C@H](Nc1nc(Nc2cn(C)cn2)nc(N2CC(F)C2)n1)c1ncc(F)cc1F` [Example 18, N-[(1S)-1-(3,5-Difluoropyridin-2-yl)ethyl]-6-(3-fluoroazetidin-1-yl)-N′-(1-methyl-1H-imidazol-4-yl)-1,3,5-triazine-2,4-diamine], 13 nM; that for `C[C@H](Nc1nc(Nc2c[nH]cn2)nc(N2CCOCC2)n1)c1ncc(F)cn1` [Example 23, N-[(1S)-1-(5-Fluoropyrimidin-2-yl)ethyl]-N′-1H-imidazol-4-yl-6-morpholin-4-yl-1,3,5-triazine-2,4-diamine], 86 nM. The figure for `C[C@H](Nc1nc(Nc2cn(C)cn2)nc(N2CCC(F)CC2)n1)c1ncc(F)cc1F` [Example 21, N-[(1S)-1-(3,5-Difluoropyridin-2-yl)ethyl]-6-(4-fluoropiperidin-1-yl)-N′-(1-methyl-1H-imidazol-4-yl)-1,3,5-triazine-2,4-diamine] is 4 nM; for `COC1CN(c2nc(Nc3cn(C)cn3)nc(N[C@@H](C)c3ncc(F)cn3)n2)C1` [Example 20, N-[(1S)-1-(5-Fluoropyrimidin-2-yl)ethyl]-6-(3-methoxyazetidin-1-yl)-N′-(1-methyl-1H-imidazol-4-yl)-1,3,5-triazine-2,4-diamine] it is 7 nM; for `COCn1cnc(Nc2nc(N[C@@H](C)c3ncc(F)cn3)nc(N3CCOCC3)n2)c1` [Example 16, N-[(1S)-1-(5-Fluoropyrimidin-2-yl)ethyl]-N′-[1-(methoxymethyl)-1H-imidazol-4-yl]-6-morpholin-4-yl-1,3,5-triazine-2,4-diamine] it is 2870 nM. As for `C[C@H](Nc1nc(Nc2cn(CC#N)cn2)nc(N2CCOCC2)n1)c1ncc(F)cn1` [Example 15, {4-[(4-{[(1S)-1-(5-Fluoropyrimidin-2-yl)ethyl]amino}-6-morpholin-4-yl-1,3,5-triazin-2-yl)amino]-1H-imidazol-1-yl}acetonitrile], the IC50 was determined as 873 nM. For `C[C@H](Nc1nc(Nc2cn(C)cn2)nc(N2CCOCC2)n1)c1ncc(F)cc1F` (single isomer, unassigned) [Example 10(b)], the IC50 is < 8 nM. For the molecule `C[C@H](Nc1nc(Nc2cn(CC(F)(F)F)cn2)nc(N2CCOCC2)n1)c1ncc(F)cn1` [Example 34, N-[(1S)-1-(5-fluoropyrimidin-2-yl)ethyl]-6-morpholin-4-yl-N′-[1-(2,2,2-trifluoroethyl)-1H-imidazol-4-yl]-1,3,5-triazine-2,4-diamine], the IC50 was found to be 8320 nM. As to `COC[C@H](Nc1nc(Nc2cn(C)cn2)nc(N2CCOC(C)C2)n1)c1ncc(F)cc1F` (stereo partly drawn) [Example 2, N-[(1R)-1-(3,5-Difluoropyridin-2-yl)-2-methoxyethyl]-N′-(1-methyl-1H-imidazol-4-yl)-6-(2-methylmorpholin-4-yl)-1,3,5-triazine-2,4-diamine], the IC50 came out at 11 nM. For `C[C@H](Nc1nc(Nc2cn(CCc3ccsc3)cn2)nc(N2CCOCC2)n1)c1ncc(F)cn1` [Example 33, N-[(1S)-1-(5-Fluoropyrimidin-2-yl)ethyl]-6-morpholin-4-yl-N′-{1-[2-(3 thienyl)ethyl]-1H-imidazol-4-yl}-1,3,5-triazine-2,4-diamine], the half-maximal inhibitory concentration (IC50) was found to be 998 nM.

For `COC1CN(c2nc(Nc3cn(C)cn3)nc(N[C@@H](C)c3ncc(F)cc3F)n2)C1` [Example 19, N-[(1S)-1-(3,5-Difluoropyridin-2-yl)ethyl]-6-(3-methoxyazetidin-1-yl)-N′-(1-methyl-1H-imidazol-4-yl)-1,3,5-triazine-2,4-diamine], the concentration for half-maximal inhibition (IC50) is 3 nM. Regarding `C[C@H](Nc1nc(Nc2cscn2)nc(N2CCOCC2)n1)c1ncc(F)cn1` [Example 26, N-[(1S)-1-(5-Fluoropyrimidin-2-yl)ethyl]-6-morpholin-4-yl-N′-1,3-thiazol-4-yl-1,3,5-triazine-2,4-diamine], the IC50 was 219 nM.

Turning to `CC(Nc1nc(Nc2cn(C)cn2)nc(N2CCOCC2)n1)c1ncc(F)cc1F` (racemic) [Example 10, N-[1-(3,5-Difluoropyridin-2-yl)ethyl]-N′-(1-methyl-1H-imidazol-4-yl)-6-morpholin-4-yl-1,3,5-triazine-2,4-diamine], the IC50 worked out at 4 nM. The figure for `Cc1cnc(Nc2nc(N[C@@H](C)c3ncc(F)cn3)nc(N3CCOCC3)n2)s1` [Example 8, N-[(1S)-1-(5-Fluoropyrimidin-2-yl)ethyl]-N′-(5-methyl-1,3-thiazol-2-yl)-6-morpholin-4-yl-1,3,5-triazine-2,4-diamine] is 4 nM; for `C[C@H](Nc1nc(Nc2cn(C)cn2)nc(N2CCC(F)(F)CC2)n1)c1ncc(F)cn1` [Example 14, 6-(4,4-Difluoropiperidin-1-yl)-N-[(1S)-1-(5-fluoropyrimidin-2-yl)ethyl]-N′-(1-methyl-1H-imidazol-4-yl)-1,3,5-triazine-2,4-diamine] it is 7 nM. The result for `C[C@H](Nc1nc(Nc2cn(CCc3ccccc3)cn2)nc(N2CCOCC2)n1)c1ncc(F)cn1` [Example 6, N-[(1S)-1-(5-Fluoropyrimidin-2-yl)ethyl]-6-morpholin-4-yl-N′-[1-(2-phenylethyl)-1H-imidazol-4-yl]-1,3,5-triazine-2,4-diamine] reads 283 nM; that for `CC(C)n1cnc(Nc2nc(N[C@@H](C)c3ncc(F)cn3)nc(N3CCOCC3)n2)c1` [Example 17, N-[(1S)-1-(5-Fluoropyrimidin-2-yl)ethyl]-N′-(1-isopropyl-1H-imidazol-4-yl)-6-morpholin-4-yl-1,3,5-triazine-2,4-diamine], 2880 nM. The result for `COC[C@H](Nc1nc(Nc2cn(C)cn2)nc(N2C[C@@H](C)O[C@@H](C)C2)n1)c1ncc(F)cc1F` [Example 1, N-[(1R)-1-(3,5-Difluoropyridin-2-yl)-2-methoxyethyl]-6-[(2R,6S)-2,6-dimethylmorpholin-4-yl]-N′-(1-methyl-1H-imidazol-4-yl)-1,3,5-triazine-2,4-diamine] reads 18 nM. Consider `COC[C@H](Nc1nc(Nc2cn(C)cn2)nc(N2CCOC(C)(C)C2)n1)c1ncc(F)cc1F` [Example 3, N-[(1R)-1-(3,5-Difluoropyridin-2-yl)-2-methoxyethyl]-6-(2,2-dimethylmorpholin-4-yl)-N-(1-methyl-1H-imidazol-4-yl)-1,3,5-triazine-2,4-diamine], for which the IC50 stood at 9 nM. The result for `COC[C@H](Nc1nc(Nc2cn(C)cn2)nc(N2CCOCC2)n1)c1ncc(F)cc1F` [Example 4, N-[(1R)-1-(3,5-Difluoropyridin-2-yl)-2-methoxyethyl]-N′-(1-methyl-1H-imidazol-4-yl)-6-morpholin-4-yl-1,3,5-triazine-2,4-diamine] reads 4 nM; that for `C[C@H](Nc1nc(Nc2cn(C3CC3)cn2)nc(N2CCOCC2)n1)c1ncc(F)cn1` [Example 32, N-(1-Cyclopropyl-1H-imidazol-4-yl)-N′-[(1S)-1-(5-fluoropyrimidin-2-yl)ethyl]-6-morpholin-4-yl-1,3,5-triazine-2,4-diamine], 393 nM. The result for `CCn1cnc(Nc2nc(N[C@@H](C)c3ncc(F)cc3F)nc(N3CCOCC3)n2)c1` [Example 31, N-[(1S)-1-(3,5-difluoropyridin-2-yl)ethyl]-N′-(1-ethyl-1H-imidazol-4-yl)-6-morpholin-4-yl-1,3,5-triazine-2,4-diamine] reads 234 nM.
